Data on two compounds can be found in US7976241B2, “Soil remediation method and composition” (priority 2006, dated 2011).

Data set [1] can be described thus: Chlorinated DNAPL dissolution in control sample without cosolvent-surfactant. It counts as physicochemical. The following applies: in presence of DNAPL, no Citrus Burst-3, 50 g/L NaCl, 25° C., 48 hours. From the text: A chlorinated solvent DNAPL was obtained from a site consisting of chlorinated solvents and chlorinated semi-volatile compounds. Composition of the chlorinated solvent DNAPL is presented based on determinations using USEPA Methods 8260 and 8270. An aliquot of the DNAPL was mixed with a suitable quantity of deionized water to determine the equilibrium solubility of the individual compounds in the presence of the DNAPL.
The data collected under the experimentation conditions presented in Table 2 were obtained at 25° C. with 60 rpm shaker table mixing for 48 hours. After the shaker was shut off, the samples sat quietly for 5 minutes before the supernatant was analyzed. DNAPLmax represents the maximum concentration of DNAPL that may dissolve, given the mass of DNAPL and the volume of water.
Carbon tetrachloride and tetrachloroethylene comprised more than 87 percent of the DNAPL. Being a saturated compound, carbon tetrachloride is generally a pervasive and difficult to degrade compound once introduced to the subsurface. […] After 48 hours of slowly mixing the DNAPL and water mixtures, the samples were allowed to sit for 5 minutes and then samples of the solubilized fraction of the mixture were collected and analyzed for VOCs using USEPA Method 8260. Samples from experiment number 1, 3, 5, 7 and 8 (control) were analyzed. […]

For data set [2] the following is noted: cited from earlier work.

Structures are written as SMILES.

In the case of `ClC(Cl)(Cl)Cl` [Carbon Tetrachloride (CTC), Carbon Tetrachloride], the “Observed Solubility in Control Sample” value in data set [1] was 0.1 mg/mL. Further, in data set [2], the “Pure Compound Aqueous Solubility” value is 0.129 mg/mL. Take `Clc1c(Cl)c(Cl)c2c(Cl)c(Cl)c(Cl)c(Cl)c2c1Cl` [Octachloronaphthalene (OCN), Octachloronaphthalene]: the “Pure Compound Aqueous Solubility” value in data set [2] is recorded as “insoluble”.
